Measurements as given in PubChem BioAssay AID2060351 (Molecular Pharmacology Branch, DTP, NCI, 2025).
“And” between values parts separate entries of the source, which are not always exact repeats. Equal entries are not always repeated.

Test system: 521955-158-R7-J2-PDC spheroids, viability % test/control
Assay: Anticancer human tumor 521955-158-R7-J2-PDC patient-derived pancreatic carcinoma cell line growth inhibition [TAK]
Conditions: spheroids with HUVEC and MSC; for viability, T/C: stronger effect = lower value
Method in brief: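 Tumor cells were grown as spheroids with HUVEC and hMSC (60:25:15) and treated with targeted agents combined with TAK-243 or ipatasertib. Drugs were tested in half-log steps down from near the clinical Cmax, or from 10 microM where Cmax was unknown.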

[1] = curve of first compound, second compound 0.3 µM
[2] = curve of first compound, second compound 0.949 µM
[3] = curve of first compound, second compound 3 µM
[4] = curve of first compound, second compound 9.49 µM
[5] = curve of first compound, second compound 30 µM
[6] = second compound 0.3 µM, first compound 0.0316 µM
[7] = second compound 0.3 µM, first compound 0.1 µM
[8] = second compound 0.3 µM, first compound 0.316 µM
[9] = second compound 0.3 µM, first compound 1 µM
[10] = second compound 0.3 µM, first compound 3.16 µM
[11] = second compound 0.3 µM, first compound 10 µM
[12] = second compound 0.949 µM, first compound 0.0316 µM
[13] = second compound 0.949 µM, first compound 0.1 µM
[14] = second compound 0.949 µM, first compound 0.316 µM
[15] = second compound 0.949 µM, first compound 1 µM
[16] = second compound 0.949 µM, first compound 3.16 µM
[17] = second compound 0.949 µM, first compound 10 µM
[18] = second compound 3 µM, first compound 0.0316 µM
[19] = second compound 3 µM, first compound 0.1 µM
[20] = second compound 3 µM, first compound 0.316 µM
[21] = second compound 3 µM, first compound 1 µM
[22] = second compound 3 µM, first compound 3.16 µM
[23] = second compound 3 µM, first compound 10 µM
[24] = second compound 9.49 µM, first compound 0.0316 µM
[25] = second compound 9.49 µM, first compound 0.1 µM
[26] = second compound 9.49 µM, first compound 0.316 µM
[27] = second compound 9.49 µM, first compound 1 µM
[28] = second compound 9.49 µM, first compound 3.16 µM
[29] = second compound 9.49 µM, first compound 10 µM
[30] = second compound 30 µM, first compound 0.0316 µM
[31] = second compound 30 µM, first compound 0.1 µM
[32] = second compound 30 µM, first compound 0.316 µM
[33] = second compound 30 µM, first compound 1 µM
[34] = second compound 30 µM, first compound 3.16 µM
[35] = second compound 30 µM, first compound 10 µM
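Note: spheroids exposed to compound for 7 days before readout.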
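Throughout, for viability, T/C: 100% = DMSO vehicle control wells.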

With `CC(C)(C)c1nc(-c2cccc(NS(=O)(=O)c3c(F)cccc3F)c2F)c(-c2ccnc(N)n2)s1` + CC(C)NCC(C(=O)N1CCN(c2ncnc3c2C(C)CC3O)CC1)c1ccc(Cl)cc1 the IC50 [1] was > 10 µM, the IC50 [2] was > 10 µM and the IC50 [3] was > 10 µM. The IC50 [4] was > 10 µM, the IC50 [5] was > 10 µM and the viability, T/C [6] was 111%. The viability, T/C [7] was 94.3%, the viability, T/C [8] was 106% and the viability, T/C [9] was 131%. It also gave a viability, T/C [10] of 101%, a viability, T/C [11] of 74.2% and a viability, T/C [12] of 89.3%. It also gave a viability, T/C [13] of 102%, a viability, T/C [14] of 90.4% and a viability, T/C [15] of 103%. For the same molecule, the viability, T/C [16] was 92.7%, the viability, T/C [17] was 60.3% and the viability, T/C [18] was 95%. The viability, T/C [19] was 115%, the viability, T/C [20] was 108% and the viability, T/C [21] was 130%. It also gave a viability, T/C [22] of 101%, a viability, T/C [23] of 71.5% and a viability, T/C [24] of 127%. For the same molecule, the viability, T/C [25] was 115%, the viability, T/C [26] was 117% and the viability, T/C [27] was 119%. For the same molecule, the viability, T/C [28] was 105%, the viability, T/C [29] was 83.7% and the viability, T/C [30] was 111%. For the same molecule, the viability, T/C [31] was 130%, the viability, T/C [32] was 138% and the viability, T/C [33] was 136%. For the same molecule, the viability, T/C [34] was 130% and the viability, T/C [35] was 97.2%.

`CC(C)CC(NC(=O)CNC(=O)c1cc(Cl)ccc1Cl)B1OC(=O)CC(CC(=O)O)(C(=O)O)O1` (stereo unspecified) + CC(C)NCC(C(=O)N1CCN(c2ncnc3c2C(C)CC3O)CC1)c1ccc(Cl)cc1 showed an IC50 [1] of 0.0388 µM, an IC50 [2] of 0.0474 µM and an IC50 [3] of 0.042 µM. For the same molecule, the IC50 [4] was 0.035 µM, the IC50 [5] was 0.0333 µM and the viability, T/C (second compound 0.3 µM, first compound 0.000316 µM) was 103%. It also gave a viability, T/C (second compound 0.3 µM, first compound 0.001 µM) of 71.9%, a viability, T/C (second compound 0.3 µM, first compound 0.00316 µM) of 96.8% and a viability, T/C (second compound 0.3 µM, first compound 0.01 µM) of 104%. The viability, T/C [6] was 60.1%, the viability, T/C [7] was 3.16% and the viability, T/C (second compound 0.949 µM, first compound 0.000316 µM) was 119%. The viability, T/C (second compound 0.949 µM, first compound 0.001 µM) was 92.2%, the viability, T/C (second compound 0.949 µM, first compound 0.00316 µM) was 87.6% and the viability, T/C (second compound 0.949 µM, first compound 0.01 µM) was 103%. The viability, T/C [12] was 74.7%, the viability, T/C [13] was 4.69% and the viability, T/C (second compound 3 µM, first compound 0.000316 µM) was 85.6%. The viability, T/C (second compound 3 µM, first compound 0.001 µM) was 90.8%, the viability, T/C (second compound 3 µM, first compound 0.00316 µM) was 109% and the viability, T/C (second compound 3 µM, first compound 0.01 µM) was 85.9%. It also gave a viability, T/C [18] of 64.8%, a viability, T/C [19] of 5.79% and a viability, T/C (second compound 9.49 µM, first compound 0.000316 µM) of 116%. It also gave a viability, T/C (second compound 9.49 µM, first compound 0.001 µM) of 98.8%, a viability, T/C (second compound 9.49 µM, first compound 0.00316 µM) of 82.7% and a viability, T/C (second compound 9.49 µM, first compound 0.01 µM) of 86.4%. For the same molecule, the viability, T/C [24] was 58.1%, the viability, T/C [25] was 4.1% and the viability, T/C (second compound 30 µM, first compound 0.000316 µM) was 95.1%. For the same molecule, the viability, T/C (second compound 30 µM, first compound 0.001 µM) was 105%, the viability, T/C (second compound 30 µM, first compound 0.00316 µM) was 88.7% and the viability, T/C (second compound 30 µM, first compound 0.01 µM) was 80.9%. It also gave a viability, T/C [30] of 52.4% and a viability, T/C [31] of 2.42%.

Molecule `Cc1nc(NC(=O)N2CCCC2C(N)=O)sc1-c1ccnc(C(C)(C)C(F)(F)F)c1` (stereo unspecified) + CC(C)NCC(C(=O)N1CCN(c2ncnc3c2C(C)CC3O)CC1)c1ccc(Cl)cc1 has an IC50 [1] of 5.65 µM, an IC50 [2] of 3.05 µM and an IC50 [3] of 1.32 µM. It also gave an IC50 [4] of 0.384 µM, an IC50 [5] of 0.28 µM and a viability, T/C [6] of 106%. It also gave a viability, T/C [7] of 106%, a viability, T/C [8] of 83.6% and a viability, T/C [9] of 62.2%. It also gave a viability, T/C [10] of 69.5%, a viability, T/C [11] of 38.6% and a viability, T/C [12] of 84%. For the same molecule, the viability, T/C [13] was 82.6%, the viability, T/C [14] was 64.6% and the viability, T/C [15] was 54.7%. For the same molecule, the viability, T/C [16] was 60.5%, the viability, T/C [17] was 33.6% and the viability, T/C [18] was 90%. The viability, T/C [19] was 79%, the viability, T/C [20] was 54.6% and the viability, T/C [21] was 57.3%. It also gave a viability, T/C [22] of 45.4%, a viability, T/C [23] of 30.8% and a viability, T/C [24] of 92.6%. The viability, T/C [25] was 70.1%, the viability, T/C [26] was 48% and the viability, T/C [27] was 43%. It also gave a viability, T/C [28] of 36.7%, a viability, T/C [29] of 27.8% and a viability, T/C [30] of 93.7%. For the same molecule, the viability, T/C [31] was 79.7%, the viability, T/C [32] was 44.6% and the viability, T/C [33] was 43.2%. It also gave a viability, T/C [34] of 39.7% and a viability, T/C [35] of 25.6%.

`CC(C)CC(NC(=O)C(Cc1ccccc1)NC(=O)c1cnccn1)B(O)O` (stereo unspecified) was tested, and the viability, T/C (compound 31.6 pM) was 94% and 103%, the viability, T/C (compound 0.0001 µM) was 82.3% and 99.8% and the viability, T/C (compound 0.000316 µM) was 96.1% and 93.2%. For the same molecule, the viability, T/C (compound 0.001 µM) was 88.4% and 100%, the viability, T/C (compound 0.00316 µM) was 103% and 93% and the viability, T/C (compound 0.01 µM) was 4.87% and 2.64%. For the same molecule, the IC50 (curve of compound) was 0.00554 µM and 0.00547 µM.

With `COc1c(OCCCN2CCOCC2)ccc2c3n(c(=NC(=O)c4cnc(N)nc4)nc12)CCN3` the viability, T/C (compound 0.00316 µM) was 87.5% and 86.9%, the viability, T/C (compound 0.01 µM) was 67.9% and 63.5% and the viability, T/C (compound 0.0316 µM) was 41.4% and 50.6%. The viability, T/C (compound 0.1 µM) was 26.5% and 25.3%, the viability, T/C (compound 0.316 µM) was 14.9% and 13.6% and the viability, T/C (compound 1 µM) was 10% and 10.6%. For the same molecule, the IC50 (curve of compound) was 0.0226 µM and 0.0252 µM.

With `CC(C)CC(NC(=O)CNC(=O)c1cc(Cl)ccc1Cl)B1OC(=O)CC(CC(=O)O)(C(=O)O)O1` (stereo unspecified) the viability, T/C (compound 0.000316 µM) was 111% and 81.1%, the viability, T/C (compound 0.001 µM) was 73.9% and 80.3% and the viability, T/C (compound 0.00316 µM) was 90.1% and 80%. The viability, T/C (compound 0.01 µM) was 111% and 82.8%, the viability, T/C (compound 0.0316 µM) was 65.7% and 50.1% and the viability, T/C (compound 0.1 µM) was 2.27% and 1.64%. The IC50 (curve of compound) was 0.042 µM and 0.0316 µM.
